Legend:
JAK 1 = JAK 1 (Homo sapiens, UniProt P23458); test: Biochemical potency on JAK1, TR-FRET LANCE Ultra kinase assay (examples 1-99); details: ATP at Km (20 μM), read-out: JAK1 inhibitory activity (pIC50 class) (converted)
How it was run: (§1)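 Each JAK isoform (human) was tested separately in a peptide-phosphorylation TR-FRET assay at ATP ≈ Km. Eleven compound concentrations, top 20 μM, 5-fold spacing. Values are IC50s from normalized-response curve fits.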

JAK 2 = JAK 2 (Homo sapiens, UniProt O60674); test: Biochemical potency on JAK2, TR-FRET LANCE Ultra kinase assay (examples 1-99); details: ATP at Km (0.7 μM), read-out: JAK2 inhibitory activity (pIC50 class) (converted)
How it was run: as §1

JAK 3 = molecular target: T1, JAK 3 (Homo sapiens, UniProt P52333); test: Biochemical potency on JAK3, TR-FRET LANCE Ultra kinase assay (examples 1-99); details: ATP at Km (0.2 μM), read-out: JAK3 inhibitory activity (pIC50 class) (converted)
T1 sequence (P52333 1-1124): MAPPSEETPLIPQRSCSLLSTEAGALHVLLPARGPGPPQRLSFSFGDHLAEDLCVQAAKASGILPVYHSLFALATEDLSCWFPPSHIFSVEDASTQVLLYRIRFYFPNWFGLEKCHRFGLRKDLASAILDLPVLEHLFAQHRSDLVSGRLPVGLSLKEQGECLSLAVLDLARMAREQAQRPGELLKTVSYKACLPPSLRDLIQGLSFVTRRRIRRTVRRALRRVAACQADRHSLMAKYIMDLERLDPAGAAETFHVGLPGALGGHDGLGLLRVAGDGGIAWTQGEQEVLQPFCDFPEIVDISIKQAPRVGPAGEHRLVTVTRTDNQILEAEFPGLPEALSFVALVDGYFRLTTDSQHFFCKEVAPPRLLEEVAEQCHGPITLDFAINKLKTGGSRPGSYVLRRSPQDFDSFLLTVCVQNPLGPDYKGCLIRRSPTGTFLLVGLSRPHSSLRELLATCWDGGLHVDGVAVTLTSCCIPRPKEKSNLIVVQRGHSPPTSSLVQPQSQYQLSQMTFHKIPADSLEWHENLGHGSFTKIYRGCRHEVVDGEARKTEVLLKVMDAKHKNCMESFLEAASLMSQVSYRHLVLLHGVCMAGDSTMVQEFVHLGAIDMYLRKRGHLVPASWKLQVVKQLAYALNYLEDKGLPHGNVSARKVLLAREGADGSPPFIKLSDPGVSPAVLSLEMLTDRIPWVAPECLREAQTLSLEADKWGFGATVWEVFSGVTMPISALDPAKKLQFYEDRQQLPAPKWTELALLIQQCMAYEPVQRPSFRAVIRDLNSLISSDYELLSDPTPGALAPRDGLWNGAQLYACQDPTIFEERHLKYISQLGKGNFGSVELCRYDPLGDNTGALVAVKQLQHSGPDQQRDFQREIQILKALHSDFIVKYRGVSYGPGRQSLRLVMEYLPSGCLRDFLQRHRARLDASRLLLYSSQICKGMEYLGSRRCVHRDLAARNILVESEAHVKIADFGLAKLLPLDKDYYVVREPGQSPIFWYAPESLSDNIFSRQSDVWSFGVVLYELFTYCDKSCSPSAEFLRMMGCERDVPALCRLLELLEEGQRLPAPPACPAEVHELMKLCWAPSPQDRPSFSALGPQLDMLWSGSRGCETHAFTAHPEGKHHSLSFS
How it was run: as §1

TYK2 = TYK2 (Homo sapiens, UniProt P29597); test: Biochemical potency on Tyk2, TR-FRET LANCE Ultra kinase assay (examples 1-99); details: ATP at Km (12 μM), read-out: Tyk2 inhibitory activity (pIC50 class) (converted)
How it was run: as §1

Sequence of TYK2 (P29597 whole entry): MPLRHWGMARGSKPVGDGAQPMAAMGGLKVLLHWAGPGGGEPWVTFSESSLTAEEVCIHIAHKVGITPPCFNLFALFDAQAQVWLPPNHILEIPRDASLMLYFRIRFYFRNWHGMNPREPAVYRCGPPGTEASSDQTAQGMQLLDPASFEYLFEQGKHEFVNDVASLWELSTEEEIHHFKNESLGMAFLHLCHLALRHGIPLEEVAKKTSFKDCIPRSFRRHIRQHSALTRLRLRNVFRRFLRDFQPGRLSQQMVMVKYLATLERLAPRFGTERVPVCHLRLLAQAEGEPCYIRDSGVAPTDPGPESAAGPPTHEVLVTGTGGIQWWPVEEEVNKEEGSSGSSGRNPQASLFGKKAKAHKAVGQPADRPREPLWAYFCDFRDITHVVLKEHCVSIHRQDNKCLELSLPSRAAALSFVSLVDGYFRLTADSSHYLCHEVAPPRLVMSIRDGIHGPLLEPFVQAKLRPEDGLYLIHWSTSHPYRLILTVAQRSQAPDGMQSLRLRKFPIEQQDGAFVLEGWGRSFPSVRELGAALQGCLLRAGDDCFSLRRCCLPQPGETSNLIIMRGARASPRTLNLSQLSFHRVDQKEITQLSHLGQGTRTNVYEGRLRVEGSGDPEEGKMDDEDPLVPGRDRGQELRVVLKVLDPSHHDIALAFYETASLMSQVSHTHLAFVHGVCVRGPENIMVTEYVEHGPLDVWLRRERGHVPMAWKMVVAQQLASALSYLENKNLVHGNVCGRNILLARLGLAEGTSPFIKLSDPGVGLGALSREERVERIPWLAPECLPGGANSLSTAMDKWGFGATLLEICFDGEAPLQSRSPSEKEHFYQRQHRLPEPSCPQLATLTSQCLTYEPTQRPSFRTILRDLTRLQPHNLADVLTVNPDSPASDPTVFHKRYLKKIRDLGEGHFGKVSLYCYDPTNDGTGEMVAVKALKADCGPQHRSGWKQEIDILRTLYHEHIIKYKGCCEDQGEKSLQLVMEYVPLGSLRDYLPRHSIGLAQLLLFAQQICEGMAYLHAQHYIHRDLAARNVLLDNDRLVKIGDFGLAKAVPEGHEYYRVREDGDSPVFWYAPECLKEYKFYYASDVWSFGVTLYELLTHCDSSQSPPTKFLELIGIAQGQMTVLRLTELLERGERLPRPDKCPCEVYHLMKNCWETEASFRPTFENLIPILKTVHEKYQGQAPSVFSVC
Sequence of JAK 2 (O60674 whole entry): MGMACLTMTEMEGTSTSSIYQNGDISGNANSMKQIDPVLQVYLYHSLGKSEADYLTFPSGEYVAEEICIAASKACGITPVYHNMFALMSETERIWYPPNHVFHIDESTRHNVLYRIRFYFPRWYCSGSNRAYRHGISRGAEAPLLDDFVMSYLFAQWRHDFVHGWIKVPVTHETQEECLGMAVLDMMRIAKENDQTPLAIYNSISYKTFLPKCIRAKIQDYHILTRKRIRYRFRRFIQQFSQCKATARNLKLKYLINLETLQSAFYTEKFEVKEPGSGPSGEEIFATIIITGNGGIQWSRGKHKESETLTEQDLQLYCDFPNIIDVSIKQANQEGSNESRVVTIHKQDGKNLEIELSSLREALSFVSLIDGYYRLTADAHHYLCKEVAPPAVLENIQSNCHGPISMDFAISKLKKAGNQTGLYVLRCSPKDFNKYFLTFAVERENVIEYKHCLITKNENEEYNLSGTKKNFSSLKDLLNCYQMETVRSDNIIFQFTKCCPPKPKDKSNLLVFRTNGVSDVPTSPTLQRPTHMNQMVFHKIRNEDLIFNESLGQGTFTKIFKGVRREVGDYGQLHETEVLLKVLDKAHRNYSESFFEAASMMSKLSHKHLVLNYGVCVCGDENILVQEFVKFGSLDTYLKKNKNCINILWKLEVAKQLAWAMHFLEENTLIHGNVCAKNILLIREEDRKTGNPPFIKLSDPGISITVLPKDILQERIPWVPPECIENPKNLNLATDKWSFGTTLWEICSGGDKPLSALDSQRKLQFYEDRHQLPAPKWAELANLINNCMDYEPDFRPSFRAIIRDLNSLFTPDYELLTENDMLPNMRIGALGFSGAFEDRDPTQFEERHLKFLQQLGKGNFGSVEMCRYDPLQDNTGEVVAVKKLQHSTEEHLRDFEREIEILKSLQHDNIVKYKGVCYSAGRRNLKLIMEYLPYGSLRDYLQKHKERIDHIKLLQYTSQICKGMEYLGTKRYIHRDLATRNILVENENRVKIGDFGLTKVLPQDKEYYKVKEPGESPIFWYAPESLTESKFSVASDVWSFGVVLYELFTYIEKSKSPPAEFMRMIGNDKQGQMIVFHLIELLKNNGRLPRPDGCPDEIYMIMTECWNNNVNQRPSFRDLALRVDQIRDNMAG
Sequence of JAK 1 (P23458 whole entry, canonical isoform): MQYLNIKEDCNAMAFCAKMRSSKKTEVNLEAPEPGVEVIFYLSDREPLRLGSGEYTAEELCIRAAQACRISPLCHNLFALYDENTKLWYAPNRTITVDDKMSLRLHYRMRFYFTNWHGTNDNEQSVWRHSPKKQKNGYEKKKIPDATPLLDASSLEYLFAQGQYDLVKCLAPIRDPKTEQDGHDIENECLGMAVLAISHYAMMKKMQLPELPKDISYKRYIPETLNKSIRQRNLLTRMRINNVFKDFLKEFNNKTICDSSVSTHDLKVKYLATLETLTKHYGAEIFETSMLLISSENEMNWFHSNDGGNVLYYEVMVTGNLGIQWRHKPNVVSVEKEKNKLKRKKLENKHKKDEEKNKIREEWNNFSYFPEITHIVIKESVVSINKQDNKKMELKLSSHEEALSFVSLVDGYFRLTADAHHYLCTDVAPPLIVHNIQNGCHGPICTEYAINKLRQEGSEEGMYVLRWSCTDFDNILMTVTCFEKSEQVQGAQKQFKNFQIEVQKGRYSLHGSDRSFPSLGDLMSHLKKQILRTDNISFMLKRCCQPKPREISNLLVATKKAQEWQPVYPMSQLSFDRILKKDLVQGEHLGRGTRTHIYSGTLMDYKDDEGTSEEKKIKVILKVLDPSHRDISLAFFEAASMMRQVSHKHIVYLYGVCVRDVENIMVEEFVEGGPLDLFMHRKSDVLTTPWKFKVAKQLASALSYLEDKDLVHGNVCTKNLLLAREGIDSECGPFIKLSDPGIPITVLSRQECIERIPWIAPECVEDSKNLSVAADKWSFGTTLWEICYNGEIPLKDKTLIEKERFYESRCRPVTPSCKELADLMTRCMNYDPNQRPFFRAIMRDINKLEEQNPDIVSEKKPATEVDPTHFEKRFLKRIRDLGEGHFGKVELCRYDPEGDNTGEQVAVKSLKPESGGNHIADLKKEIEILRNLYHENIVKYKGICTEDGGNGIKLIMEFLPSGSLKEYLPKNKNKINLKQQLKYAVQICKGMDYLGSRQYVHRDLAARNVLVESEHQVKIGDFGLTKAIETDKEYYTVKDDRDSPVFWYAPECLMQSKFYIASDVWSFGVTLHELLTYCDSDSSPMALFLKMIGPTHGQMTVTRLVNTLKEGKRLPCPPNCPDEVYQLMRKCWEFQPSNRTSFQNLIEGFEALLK

| SMILES | IC50 (JAK 1) | IC50 (JAK 2) | IC50 (JAK 3) | IC50 (TYK2) |
| --- | --- | --- | --- | --- |
| Cc1nn(-c2cc(C(=O)Nc3nccs3)ccc2OC(F)F)c2cc(-c3cnn4cccnc34)ncc12 [Example 66, 4-(difluoromethoxy)-3-(3-methyl-6-(pyrazolo[1,5-a]pyrimidin-3-yl)-1H-pyrazolo[4,3-c]pyridin-1-yl)-N-(thiazol-2-yl)benzamide] | 5.01 to 50.1 nM | 5.01 to 50.1 nM | ≤ 5.01 nM | > 50.1 nM |
| CNC(=O)CSc1ccc(OC(F)F)c(-n2nc(C)c3cnc(-c4cnn5cccnc45)cc32)c1 [Example 67, 2-((4-(difluoromethoxy)-3-(3-methyl-6-(pyrazolo[1,5-a]pyrimidin-3-yl)-1H-pyrazolo[4,3-c]pyridin-1-yl)phenyl)thio)-N-methylacetamide] | 5.01 to 50.1 nM | 5.01 to 50.1 nM | 5.01 to 50.1 nM | > 50.1 nM |
| Cc1nn(-c2cc(SCC(N)=O)ccc2OC(F)F)c2cc(-c3cnn4cccnc34)ncc12 [Example 68, 2-((4-(difluoromethoxy)-3-(3-methyl-6-(pyrazolo[1,5-a]pyrimidin-3-yl)-1H-pyrazolo[4,3-c]pyridin-1-yl)phenyl)thio)acetamide] | 5.01 to 50.1 nM | ≤ 5.01 nM | ≤ 5.01 nM | > 50.1 nM |
| Cc1nn(-c2cc(SCC(=O)NCCO)ccc2OC(F)F)c2cc(-c3cnn4cccnc34)ncc12 [Example 69, 2-((4-(difluoromethoxy)-3-(3-methyl-6-(pyrazolo[1,5-a]pyrimidin-3-yl)-1H-pyrazolo[4,3-c]pyridin-1-yl)phenyl)thio)-N-(2-hydroxyethyl)acetamide] | 5.01 to 50.1 nM | 5.01 to 50.1 nM | 5.01 to 50.1 nM | > 50.1 nM |
| Cc1nn(-c2cc(S(=O)(=O)CC(N)=O)ccc2OC(F)F)c2cc(-c3cnn4cccnc34)ncc12 [Example 70, 2-((4-(difluoromethoxy)-3-(3-methyl-6-(pyrazolo[1,5-a]pyrimidin-3-yl)-1H-pyrazolo[4,3-c]pyridin-1-yl)phenyl)sulfonyl)acetamide] | 5.01 to 50.1 nM | ≤ 5.01 nM | ≤ 5.01 nM | > 50.1 nM |
| Cc1nn(-c2cc(SC3CC3)ccc2OC(F)F)c2cc(-c3cnn4cccnc34)ncc12 [Example 71, 1-(5-(cyclopropylthio)-2-(difluoromethoxy)phenyl)-3-methyl-6-(pyrazolo[1,5-a]pyrimidin-3-yl)-1H-pyrazolo[4,3-c]pyridine] | 5.01 to 50.1 nM | 5.01 to 50.1 nM | 5.01 to 50.1 nM | > 50.1 nM |
| Cc1nn(-c2cc(SC3CCOCC3)ccc2OC(F)F)c2cc(-c3cnn4cccnc34)ncc12 [Example 72, 1-(2-(difluoromethoxy)-5-((tetrahydro-2H-pyran-4-yl)thio)phenyl)-3-methyl-6-(pyrazolo[1,5-a]pyrimidin-3-yl)-1H-pyrazolo[4,3-c]pyridine] | 5.01 to 50.1 nM | 5.01 to 50.1 nM | ≤ 5.01 nM | > 50.1 nM |
| Cc1nn(-c2cc(SC3COC3)ccc2OC(F)F)c2cc(-c3cnn4cccnc34)ncc12 [Example 73, 1-(2-(difluoromethoxy)-5-(oxetan-3-ylthio)phenyl)-3-methyl-6-(pyrazolo[1,5-a]pyrimidin-3-yl)-1H-pyrazolo[4,3-c]pyridine] | ≤ 5.01 nM | ≤ 5.01 nM | ≤ 5.01 nM | 5.01 to 50.1 nM |

More lines, now with the values ahead:

| IC50 (JAK 1) | IC50 (JAK 2) | IC50 (JAK 3) | IC50 (TYK2) | SMILES |
| --- | --- | --- | --- | --- |
| > 50.1 nM | 5.01 to 50.1 nM | 5.01 to 50.1 nM | > 50.1 nM | Cc1nn(-c2cc(SC3CCNCC3)ccc2OC(F)F)c2cc(-c3cnn4cccnc34)ncc12 [Example 74, 1-(2-(difluoromethoxy)-5-(piperidin-4-ylthio)phenyl)-3-methyl-6-(pyrazolo[1,5-a]pyrimidin-3-yl)-1H-pyrazolo[4,3-c]pyridine] |
| 5.01 to 50.1 nM | 5.01 to 50.1 nM | 5.01 to 50.1 nM | > 50.1 nM | CC(=O)N1CCC(Sc2ccc(OC(F)F)c(-n3nc(C)c4cnc(-c5cnn6cccnc56)cc43)c2)CC1 [Example 75, 1-(4-((4-(difluoromethoxy)-3-(3-methyl-6-(pyrazolo[1,5-a]pyrimidin-3-yl)-1H-pyrazolo[4,3-c]pyridin-1-yl)phenyl)thio)piperidin-1-yl)ethan-1-one] |
| 5.01 to 50.1 nM | 5.01 to 50.1 nM | 5.01 to 50.1 nM | > 50.1 nM | NC1CN(Cc2nn(-c3cc(Cl)ccc3OC(F)F)c3cc(-c4cnn5cccnc45)ncc23)C1 [Example 76, 1-((1-(5-chloro-2-(difluoromethoxy)phenyl)-6-(pyrazolo[1,5-a]pyrimidin-3-yl)-1H-pyrazolo[4,3-c]pyridin-3-yl)methyl)azetidin-3-amine] |
| 5.01 to 50.1 nM | 5.01 to 50.1 nM | 5.01 to 50.1 nM | 5.01 to 50.1 nM | COc1ccc(Cl)cc1-n1nc(C(=O)N[C@H]2C[C@H](N)C2)c2cnc(-c3cnn4cccnc34)cc21 [Example 77, N-((1r,3r)-3-aminocyclobutyl)-1-(5-chloro-2-methoxyphenyl)-6-(pyrazolo[1,5-a]pyrimidin-3-yl)-1H-pyrazolo[4,3-c]pyridine-3-carboxamide] |
| 5.01 to 50.1 nM | 5.01 to 50.1 nM | 5.01 to 50.1 nM | > 50.1 nM | CNC(=O)CN(C)[C@H]1C[C@H](NC(=O)c2nn(-c3cc(Cl)ccc3OC)c3cc(-c4cnn5cccnc45)ncc23)C1 [Example 78, 1-(5-chloro-2-methoxyphenyl)-N-((1r,3r)-3-(methyl(2-(methylamino)-2-oxoethyl)amino)cyclobutyl)-6-(pyrazolo[1,5-a]pyrimidin-3-yl)-1H-pyrazolo[4,3-c]pyridine-3-carboxamide] |
| 5.01 to 50.1 nM | 5.01 to 50.1 nM | 5.01 to 50.1 nM | > 50.1 nM | COc1ccc(Cl)cc1-n1nc(C(=O)N[C@H]2C[C@H](N3CCOCC3)C2)c2cnc(-c3cnn4cccnc34)cc21 [Example 79, 1-(5-chloro-2-methoxyphenyl)-N-((1r,3r)-3-morpholinocyclobutyl)-6-(pyrazolo[1,5-a]pyrimidin-3-yl)-1H-pyrazolo[4,3-c]pyridine-3-carboxamide] |
| 5.01 to 50.1 nM | 5.01 to 50.1 nM | 5.01 to 50.1 nM | 5.01 to 50.1 nM | COc1ccc(Cl)cc1-n1nc(C(=O)N[C@H]2C[C@H](N(C)C)C2)c2cnc(-c3cnn4cccnc34)cc21 [Example 80, 1-(5-chloro-2-methoxyphenyl)-N-((1r,3r)-3-(dimethylamino)cyclobutyl)-6-(pyrazolo[1,5-a]pyrimidin-3-yl)-1H-pyrazolo[4,3-c]pyridine-3-carboxamide] |
| 5.01 to 50.1 nM | > 50.1 nM | 5.01 to 50.1 nM | > 50.1 nM | N[C@H]1C[C@@H](NC(=O)c2nn(-c3cc(Cl)ccc3OC(F)F)c3cc(-c4cnn5cccnc45)ncc23)C1 [Example 81, N-((1s,3s)-3-aminocyclobutyl)-1-(5-chloro-2-(difluoromethoxy)phenyl)-6-(pyrazolo[1,5-a]pyrimidin-3-yl)-1H-pyrazolo[4,3-c]pyridine-3-carboxamide] |
| 5.01 to 50.1 nM | 5.01 to 50.1 nM | 5.01 to 50.1 nM | > 50.1 nM | COc1ccc(S(C)(=O)=O)cc1-n1nc(C(=O)NCCN(C)C)c2cnc(-c3cnn4cccnc34)cc21 [Example 82, N-(2-(dimethylamino)ethyl)-1-(2-methoxy-5-(methylsulfonyl)phenyl)-6-(pyrazolo[1,5-a]pyrimidin-3-yl)-1H-pyrazolo[4,3-c]pyridine-3-carboxamide] |
| 5.01 to 50.1 nM | 5.01 to 50.1 nM | 5.01 to 50.1 nM | > 50.1 nM | COc1ccc(S(C)(=O)=O)cc1-n1nc(C(=O)NCCCN(C)C)c2cnc(-c3cnn4cccnc34)cc21 [Example 83, N-(3-(dimethylamino)propyl)-1-(2-methoxy-5-(methylsulfonyl)phenyl)-6-(pyrazolo[1,5-a]pyrimidin-3-yl)-1H-pyrazolo[4,3-c]pyridine-3-carboxamide] |

— US20240279240A1, “HETEROCYCLIC DERIVATIVES AS JANUS KINASE INHIBITORS” (CHIESI FARMACEUTICI S.P.A., priority 2021, published 2024)
